# Data published in patent US11518996B2, “Methods and compositions for treating cancer using peptide nucleic acid-based agents” (MEMORIAL SLOAN-KETTERING CANCER CENTER, priority 2013, dated 2022).
# Entries after “also recorded” stand apart in the source; their conditions may differ.
# Experiments:
# [1] = test system: OCM1A cells; assay: Cell viability assay (CCK8), BRAF V600E mutant uveal melanoma cells; details: increasing doses, 72 hours
# Experimental: (§1) PNA compounds targeting the BRAF V600E gene mutation were tested against melanoma cell lines that are either BRAF wild type (C918) or BRAF V600E mutant (OCM1A and SK-MEL 7). C918 and OCM1A are uveal melanoma cell lines while SK-MEL 7 is a cutaneous melanoma cell line. C918 was kindly provided by Robert Folberg (University of Illinois, Chicago, Ill.). OCM1A was from Dr. William Harbour (Washington University, St. Louis, Mo.). SK-MEL 7 was from Alan Houghton (Memorial Sloan-Kettering Cancer Center, New York, N.Y.). Cells were cultured in RPMI medium supplemented with 10% FBS, 100 units/mL penicillin, and […] streptomycin and maintained at 37° C. in 5% CO2.
# (§2) PNA compounds targeting the BRAF V600E gene mutation were tested against melanoma cell lines that are either BRAF wild-type (C918) or BRAF V600E mutant (OCM1A and SK-MEL 7). C918 and OCM1A are uveal melanoma cell lines while SK-MEL 7 is a cutaneous melanoma cell line. […] Cells were treated with increasing doses of several PNA derivatives for 72 hours after which the cell viability was measured and calculated relative to the untreated cells. Cells were plated in 96-well plates and treated in triplicates with the indicated concentrations of PNA derivative. Viability was assessed after 72 hours of treatment using the Cell Counting Kit 8 (CCK8) from Dojindo Molecular Technologies according to the manufacturer's instructions.
# [2] = test system: BRAF V600E mRNA; assay: qRT-PCR of BRAF V600E mRNA in OCM1A cells; format: cell-based; details: 750 nM, 48 hours, RT-PCR, normalized with GAPDH
# Experimental: (§3) C918 and OCM1A cells were treated with 750 nM PNA (I-292-3 L2LP) for 48 hours. Mutant BRAF mRNA expression in cells was quantified using RT-PCT. Specifically, cells were treated and then lysed using TRIzol Reagent® (Invitrogen). Reverse transcription of 1 μg of RNA was done using the SuperScript III First-Strand Synthesis System (Invitrogen). Quantitative real-time PCR (qRT-PCR) assays were performed using the 7300 Real Time PCR System (Applied Biosystems). TaqMan gene expression assays, which include gene-specific probe primer sets (Applied Biosystems), were used to detect the indicated genes and glyceraldehyde-3-phosphate dehydrogenase (GAPDH)/hypoxanthine phosphoribosyltransferase (HPRT) mRNA. The relative expression of each gene was calculated by the ΔΔCT method. Cells wild-type for BRAF (C918) as well as mutant cell lines (OCM1A and SK-Mel 7) were treated for 48 hours with 750 nM I-292-3 L2LP NHAc. According to FIG. 5A, BRAF^V600E mRNA expression was quantified using RT-PCR. Relative Quantity (RQ) values were normalized with GAPDH loading control and set relative to the mutant BRAF mRNA expression in untreated OCM1A cells (ND). […] According to FIG. 5B, Both BRAF^V600E and total BRAF mRNA expression in SK-Mel 7 cells were quantified using RT-PCR. RQ values were normalized with GAPDH and set relative to untreated cells. […]
# [3] = test system: total BRAF wild type protein; assay: Western blot of total BRAF protein in OCM1A cells; format: cell-based; details: 750 nM, over 72 hours
# Experimental: (§4) Cells were treated for 24, 48 and 72-hour treatments with 750 nM PNA and lysed in radioimmunoprecipitation assay (RIPA) buffer supplemented with protease inhibitor cocktail tablets (Roche Diagnostics) and 1 mmol/L Na3VO4. Equal amounts of protein were loaded on 4% to 12% PAGE gels (Invitrogen). Polyvinylidene difluoride (PVDF) membranes were blocked with 5% nonfat dried milk and probed with p-MEK, MEK, p-ERK 1/2 (T202/Y204), ERK 1/2, cleaved PARP, α-tubulin (Cell Signaling Technology), BRAF (Santa Cruz Biotechnology), LC3 (Novus Biologicals) and BRAF V600E (Spring Bioscience).
# (§5) FIGS. 3A-3C depict BRAF mutant and BRAF wild type protein expression in melanoma cells (C918 and OCM1A) treated with 750 nM of the PNA I-292-3 L2LP NHAc for 24, 48 or 72 hours. FIG. 3A depicts the measurement of mutant and total BRAF protein expression as measured by Western blotting in C918 and OCM1A cells. Tubulin expression was also measured as a loading control. […]
# as §5, with “4A-4C” for “3A-3C”, “I-292-9 L2” for “I-292-3 L2LP”, “4A” for “3A”
# [4] = test system: OCM1A; assay: Xenograft mouse trial, tumor size; format: in vivo, Athymic mice
# Experimental: Athymic mice (3 per group) were inoculated with OCM1A. After 15 days, the size of the developing tumor was sufficient for further measurement and monitoring. The treatment group was given 50 mg/kg dosage of I-292-3 L2LP-NHAc on days 15, 17, 20 and 22. […] Moreover, one week following the last dose, the average tumor size of the treated group began to shrink by 25% over 4 days.
# [5] = Toxicity in xenograft mice by weight loss and activity; format: in vivo, Athymic mice; details: OCM1A xenograft mice, 50 mg/kg doses, 28 day study
# Experimental: Toxicity of the tested PNA derivative was evaluated by measuring weight loss of test animals.
# [6] = test system: BRAF V600E mutant protein; assay: Western blot of BRAF V600E mutant protein in OCM1A cells; format: cell-based; details: 750 nM, over 72 hours
# Experimental: as §4, §5
# as §5, with “4A-4C” for “3A-3C”, “I-292-9 L2” for “I-292-3 L2LP”, “4A” for “3A”
# [7] = test system: total BRAF mRNA; assay: qRT-PCR of total BRAF mRNA in SK-Mel 7 cells; format: cell-based; details: 750 nM, 48 hours, RT-PCR, normalized with GAPDH
# Experimental: as §3
# [8] = test system: BRAF; assay: BRAF expression by Western blot in SK MEL 7 cells; format: cell-based
# Experimental: as §2, §4
# [9] = test system: SK-MEL 7 cells; assay: Cell viability assay (CCK8), BRAF V600E mutant cutaneous melanoma cells; details: increasing doses, 72 hours
# Experimental: as §1, §2
# [10] = test system: BRAF V600E mRNA; assay: qRT-PCR of BRAF V600E mRNA in SK-Mel 7 cells; format: cell-based; details: 750 nM, 48 hours, RT-PCR, normalized with GAPDH
# Experimental: as §3
# [11] = test system: BRAF; assay: BRAF expression by Western blot in OCM1A cells; format: cell-based
# Experimental: as §2, §4
# [12] = test system: total BRAF wild type protein; assay: Western blot of total BRAF protein in C918 cells; format: cell-based; details: 750 nM, over 72 hours
# Experimental: as §4, §5
# as §5, with “4A-4C” for “3A-3C”, “I-292-9 L2” for “I-292-3 L2LP”, “4A” for “3A”
molecule,measurement,setting,value
"CCCCCCCCCCCCCCCC(=O)NCCCC[C@H](NC(=O)[C@@H](CCCCN)NC(=O)[C@@H](CCCCN)NC(=O)[C@H](NC(=O)[C@@H](CCCCN)NC(=O)[C@@H](CCCNC(=N)N)NC(=O)[C@@H](CCCCN)NC(=O)[C@@H](CCCCN)NC(=O)[C@@H](CCCCN)NC(=O)[C@H]1CCCN1C(=O)[C@@H](CCCCN)NC(=O)CN(CCNC(=O)CN(CCNC(=O)CN(CCNC(=O)CN(CCNC(=O)CN(CCNC(=O)CN(CCNC(=O)CN(CCNC(=O)CN(CCNC(=O)CN(CCNC(=O)CN(CCNC(=O)CN(CCNC(=O)CN(CCNC(=O)CN(CCNC(=O)CN(CCNC(=O)CN(CCNC(=O)CN(CCNC(=O)CN(CCNC(=O)CN(CCNC(=O)[C@@H](CCCCN)NC(=O)[C@@H](CCCCN)NC(=O)[C@H](CCCCNC(=O)CCCCCCCCCCCCCCC)NC(C)=O)C(=O)Cn1ccc(N)nc1=O)C(=O)Cn1ccc(N)nc1=O)C(=O)Cn1cc(C)c(=O)[nH]c1=O)C(=O)Cn1ccc(N)nc1=O)C(=O)Cn1cnc2c(N)ncnc21)C(=O)Cn1cnc2c(N)ncnc21)C(=O)Cn1cnc2c(=O)[nH]c(N)nc21)C(=O)Cn1cnc2c(N)ncnc21)C(=O)Cn1cnc2c(=O)[nH]c(N)nc21)C(=O)Cn1cc(C)c(=O)[nH]c1=O)C(=O)Cn1cnc2c(N)ncnc21)C(=O)Cn1cnc2c(N)ncnc21)C(=O)Cn1cc(C)c(=O)[nH]c1=O)C(=O)Cn1cnc2c(N)ncnc21)C(=O)Cn1cnc2c(N)ncnc21)C(=O)Cn1cc(C)c(=O)[nH]c1=O)C(=O)Cn1cnc2c(N)ncnc21)C(=O)Cn1cc(C)c(=O)[nH]c1=O)C(C)C)C(N)=O [I-292-3 L2LP NHAc, AcNH-Lys(palmitoyl)-dLys-dLys-C CT CAAGAGTAATAATAT-dLys-dPro-dLys-dLys-dLysdArg-dLys-dVal-dLys-dLys-Lys(palmitoyl)-CONH2]",suppression of cell viability in OCM1A cells,[1],significant suppression of cell viability
same,BRAF V600E mRNA expression in OCM1A cells,[2],significantly decreased
same,total BRAF wild type protein in OCM1A cells,[3],no significant reduction
same,tumor volume regression,"[4]; OCM1A xenograft mice, 50 mg/kg IP doses (FIG. 6A legend)",50%
same,average tumor size as percentage of the untreated control group,"[4]; OCM1A xenograft, 50 mg/kg on days 15, 17, 20 and 22, day 28",35%
same,shrinkage of average tumor size of the treated group,"[4]; OCM1A xenograft, 50 mg/kg, over 4 days, one week following the last dose",25%
same,"animal weight and activity (toxicity, words)",[5],no weight loss or changes in daily activity
same,BRAF V600E mutant protein expression in OCM1A cells,[6],decreased expression
same,total BRAF mRNA expression in SK-Mel 7 cells,[7],no observed decrease
same,"decrease in BRAF expression, SK MEL 7 cells",[8],62.4%
same,suppression of cell viability in SK-MEL 7 cells,[9],significant suppression of cell viability
same,BRAF V600E mRNA expression in SK-Mel 7 cells,[10],decreased significantly
same,"decrease in BRAF expression, OCM1A cells",[11],40.3%
same,total BRAF wild type protein in C918 cells,[12],no significant reduction
AcNH-Lys(palmitoyl)-dLys-dLys-CCTCAAGAGTAATAATAT-dLys-dArg3-dGln-dArg2-dLys2-dArg-Gly-dTyr-dLys-dLys-Lys(palmitoyl)-CONH2 [I-292-9 L2 NHAc],suppression of cell viability in OCM1A cells,[1],significant suppression of cell viability
same,total BRAF wild type protein in OCM1A cells,[3],slight decrease; also recorded: slight reduction
same,BRAF V600E mutant protein expression in OCM1A cells,[6],decreased expression
same,suppression of cell viability in SK-MEL 7 cells,[9],significant suppression of cell viability
same,total BRAF wild type protein in C918 cells,[12],no significant reduction
